Laboratory results from paper PMC12624743 (ACS Infectious Diseases, 2025).
≈ marks a conversion by molar mass, not a printed value.

Tests used:
[1] = system: N. gonorrhoeae FA1090E-4 (GyrA^D90N/ParC^WT); test: MIC by agar dilution, GyrA^D90N strain; assay type: cell-based; settings: Neisseria gonorrhoeae
Procedure: This strain was designated FA1090E-4 (GyrA^D90N).
(§1) Minimum inhibitory concentration (MIC) of test compounds was determined by an agar dilution method, the reference testing method for N. gonorrhoeae according to the standards of the Clinical and Laboratory Standards Institute and the CDC.

[2] = biological target: T1, N. gonorrhoeae topoisomerase IV ParC^S88P (Neisseria gonorrhoeae, UniProt P48374, S88P); test: Topoisomerase IV-catalyzed DNA decatenation assay, ParC^S88P; assay type: biochemical; design: His; made in house
T1 sequence (P48374 1-768 S88P): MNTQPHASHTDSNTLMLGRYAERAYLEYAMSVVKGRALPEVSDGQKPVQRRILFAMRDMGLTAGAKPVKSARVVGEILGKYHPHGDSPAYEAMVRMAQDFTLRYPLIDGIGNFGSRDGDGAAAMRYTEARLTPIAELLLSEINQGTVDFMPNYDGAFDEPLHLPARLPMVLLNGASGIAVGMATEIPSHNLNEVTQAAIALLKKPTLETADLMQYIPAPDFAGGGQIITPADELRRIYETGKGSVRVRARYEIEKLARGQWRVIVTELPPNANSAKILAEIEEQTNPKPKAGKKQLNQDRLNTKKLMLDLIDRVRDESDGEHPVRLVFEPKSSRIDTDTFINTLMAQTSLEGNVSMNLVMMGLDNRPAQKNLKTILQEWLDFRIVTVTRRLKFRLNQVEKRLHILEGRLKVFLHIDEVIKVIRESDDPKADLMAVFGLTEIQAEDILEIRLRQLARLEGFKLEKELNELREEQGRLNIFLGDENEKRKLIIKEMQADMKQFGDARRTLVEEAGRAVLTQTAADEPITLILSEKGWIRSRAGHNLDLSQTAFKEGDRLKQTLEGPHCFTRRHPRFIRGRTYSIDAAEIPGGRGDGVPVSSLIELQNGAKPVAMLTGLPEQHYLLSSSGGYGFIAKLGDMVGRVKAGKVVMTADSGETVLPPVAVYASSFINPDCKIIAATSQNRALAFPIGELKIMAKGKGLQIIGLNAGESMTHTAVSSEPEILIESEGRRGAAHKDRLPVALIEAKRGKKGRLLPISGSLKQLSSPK
Procedure: (§2) All proteins were His-tagged. N. gonorrhoeae WT gyrase (GyrA, GyrB) and topoisomerase IV (ParC, ParE) subunits as well as mutant GyrA^D90N, GyrA^A92T, GyrA^S91F, and GyrA^S91F/D95G gyrase and ParC^D86N and ParC^S88P topoisomerase IV were prepared as described previously. , N. gonorrhoeae mutant GyrA^D95G gyrase and mutant ParC^S87N and ParC^E91G topoisomerase IV were generated using a QuickChange II XL site-directed mutagenesis kit (Agilent Technologies) with custom primers for the desired mutations. Mutant N. gonorrhoeae GyrA and ParC subunits were expressed and purified as described by Ashley et al. with the following modifications to optimize protein expression and lysis: (1) GyrA^D95G was expressed for 2.5 h and ParC^S87N and ParC^E91G were expressed for 3 h before harvesting, and (2) cells were lysed by sonication using a digital sonifier (Branson). The identities of all constructs were confirmed by DNA sequencing, and all enzymes were stored at −80 °C. In all assays, N. gonorrhoeae gyrase or topoisomerase IV was used as a 1:1 GyrA:GyrB or ParC:ParE mixture, respectively, and the stated enzyme concentration reflects that of the holoenzyme (A2B2). […]

[3] = system: N. gonorrhoeae topoisomerase IV ParC^S87N; test: Topoisomerase IV-catalyzed DNA decatenation assay, ParC^S87N; assay type: biochemical, Neisseria gonorrhoeae; settings: ParC S87N vs WT
Procedure: as §2

[4] = biological target: T2, N. gonorrhoeae topoisomerase IV ParC^S87N (Neisseria gonorrhoeae, UniProt P48374, S87N); test: as above; assay type: biochemical; design: His; made in house
Procedure: as §2

[5] = biological target: T1, N. gonorrhoeae topoisomerase IV ParC^S88P; test: biochemical
Procedure: (§3) Some experiments replaced MgCl2 with an equivalent concentration of CaCl2 (10 mM), or 1.5 mM ATP was added to assay mixtures.
(§4) Reactions were incubated at 37 °C for 30 min with WT and mutant (GyrA^D90N, GyrA^A92T, GyrA^S91F, GyrA^D95G, or GyrA^S91F/D95G) N. gonorrhoeae gyrase, 10 min with WT N. gonorrhoeae topoisomerase IV, and 20 min with mutant (ParC^D86N, ParC^S88P, ParC^S87N, or ParC^E91G) N. gonorrhoeae topoisomerase IV. Enzyme-DNA cleavage complexes were trapped by adding 2 μL of 5% SDS followed by 2 μL of 250 mM EDTA (pH 8.0). Proteinase K was added (2 μL of a 0.8 mg/mL solution), and reaction mixtures were incubated at 45 °C for 30 min to digest the enzyme. Samples were mixed with 2 μL of loading buffer and heated at 45 °C for 2 min prior to electrophoresis in 1% agarose gels in 40 mM Tris-acetate (pH 8.3), and 2 mM EDTA containing 0.5 μg/mL ethidium bromide. DNA bands were visualized by midrange ultraviolet light and quantified using an Alpha Innotech digital imaging system (Protein Simple). Single-stranded DNA cleavage was monitored by the conversion of negatively supercoiled to nicked plasmid molecules.

[6] = biological target: T2, N. gonorrhoeae topoisomerase IV ParC^S87N; test: biochemical
Procedure: as §3, §4

[7] = system: N. gonorrhoeae topoisomerase IV ParC^E91G; test: biochemical; settings: ParC E91G vs WT
Procedure: as §3, §4

[8] = system: N. gonorrhoeae topoisomerase IV ParC^E91G; test: Topoisomerase IV-catalyzed DNA decatenation assay, ParC^E91G; assay type: biochemical, Neisseria gonorrhoeae; settings: ParC E91G vs WT
Procedure: as §2

[9] = system: N. gonorrhoeae FA1090-Q1 (GyrA^S91F/D95G, ParC WT); test: MIC by agar dilution, fluoroquinolone-resistant GyrA^S91F/D95G strain; assay type: cell-based; settings: Neisseria gonorrhoeae
Procedure: as §1

T2 sequence (P48374 whole entry S87N): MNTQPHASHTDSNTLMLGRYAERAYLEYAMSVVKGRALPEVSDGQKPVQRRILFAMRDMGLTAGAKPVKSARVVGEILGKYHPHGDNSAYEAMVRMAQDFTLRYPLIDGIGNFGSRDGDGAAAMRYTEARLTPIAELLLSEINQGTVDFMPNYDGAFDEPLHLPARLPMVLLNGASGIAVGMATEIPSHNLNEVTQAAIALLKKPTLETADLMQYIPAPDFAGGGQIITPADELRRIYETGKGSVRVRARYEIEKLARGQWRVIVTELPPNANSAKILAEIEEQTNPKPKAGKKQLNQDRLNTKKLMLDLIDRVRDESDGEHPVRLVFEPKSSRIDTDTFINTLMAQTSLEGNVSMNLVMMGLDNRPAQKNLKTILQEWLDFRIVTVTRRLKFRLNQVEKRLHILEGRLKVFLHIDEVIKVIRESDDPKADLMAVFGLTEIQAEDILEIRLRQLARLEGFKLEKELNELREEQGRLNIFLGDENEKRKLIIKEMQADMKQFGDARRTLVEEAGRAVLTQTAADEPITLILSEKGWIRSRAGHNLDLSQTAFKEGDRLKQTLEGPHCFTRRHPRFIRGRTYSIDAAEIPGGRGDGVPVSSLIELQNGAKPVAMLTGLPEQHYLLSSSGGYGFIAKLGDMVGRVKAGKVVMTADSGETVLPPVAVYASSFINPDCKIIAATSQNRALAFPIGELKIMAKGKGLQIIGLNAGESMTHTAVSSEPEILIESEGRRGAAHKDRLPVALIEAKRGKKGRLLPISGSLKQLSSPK

In the case of O=c1ccc2ncc(=O)n3c2n1C[C@H]3CN1CCC(NCc2cc3c(cn2)OCCC3)CC1 [gepotidacin], the MIC [1] is reported as 1 µg/mL (≈ 2.23 µM), the IC50 [2] is reported as 1200 nM and the “effect of mutation on gepotidacin susceptibility in decatenation assays” value ([2]; ParC S88P vs WT) is reported as “no effect”. For the same molecule, the “fold lower decatenation IC50 vs WT topoisomerase IV” value [3] was ~2.3 fold, the IC50 [4] was 800 nM and the EC50 [5] was 200 nM. For the same molecule, the EC50 [6] was 600 nM, the “fold decrease of Adj-Max Cleavage vs WT” value [7] was ~3.2 fold and the “fold lower decatenation IC50 vs WT topoisomerase IV” value [8] was ~1.2 fold. The MIC [9] was 0.125 µg/mL (≈ 0.279 µM).
